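Dose response: 5 concentrations. Exposure: 48 h. Format: 96-well plates. Endpoint: linear interpolation; highest concentration if not reached. The concentration for 50% growth inhibition is given as GI50. At the TGI there is no net growth.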 *1 amine or outer side, *2 acyl side, *3 side chain or, on linkers, in order; H or OH if unused. Where a SMILES comes first, the peptide text is derived from it. [ ]: non-standard residue; d: D form. The star is where a group is joined. ξ: configuration not given here. X27 = O=C([C@H]1CCC[C@H]1N[*:1])[*:2]; ξW = NC(Cc1c[nH]c2ccccc12)C(=O)O; ξF = NC(Cc1ccccc1)C(=O)O; Boc = CC(C)(C)OC(=O)*; ξK = NCCCCC(N)C(=O)O; ξT = CC(O)C(N)C(=O)O; tBu = CC(C)(C)*
Tests used:
Assay in all cases: DTP human tumour cell line panel, 48 h
[1] = system: 786-0 renal
[2] = system: BT-549 breast
[3] = system: HCT-15 colon
[4] = system: HOP-62 NSCLC
[5] = system: K-562 leukemia
[6] = system: MOLT-4 leukemia
[7] = system: NCI/ADR-RES ovarian
[8] = system: OVCAR-8 ovarian
[9] = system: RXF 393 renal
[10] = system: SF-539 CNS
[11] = system: SW-620 colon

Compound | TGI [1] [µM] | TGI [2] [µM] | TGI [3] [µM] | TGI [4] [µM] | TGI [5] [µM] | TGI [6] [µM] | TGI [7] [µM] | TGI [8] [µM] | TGI [9] [µM] | TGI [10] [µM] | TGI [11] [µM] | GI50 [2] [µM] | GI50 [3] [µM] | GI50 [7] [µM] | GI50 [9] [µM] | GI50 [10] [µM] | GI50 [11] [µM]
CCOc1ccc2nc3nc(=O)[nH]c(C)c3c(NCCCN(CC)CC)c2c1 | > 100 | > 100 | > 100 | > 100 | > 100 | > 100 | > 100 | > 100 | > 100 | > 100 | > 100 |  |  |  |  |  | 
S=C(NNC1=NCCCCN1)Nc1ccc(Cl)cc1 | > 100 | > 100 | > 100 | 31.7 | > 100 | 47.1 | > 100 | > 100 | > 100 | 76.5 | > 100 |  |  |  |  |  | 
c1cnn(C23C4C5C6C4C2C6C53)c1 (configuration not stated) | > 100 | > 100 | > 100 | > 100 | > 100 | > 100 | > 100 | > 100 |  | > 100 | > 100 |  |  |  |  |  | 
CCN(CC)Cc1cc(Nc2c3ccccc3nc3c2[nH]c2ccccc23)cc(CN(CC)CC)c1O | 0.974 | 2.83 | 3.4 | 2.26 | > 100 |  |  | 2.89 | 1.25 | 2.29 | 2.47 |  |  |  |  |  | 
CN(C)CCNc1nc2ccccc2c2c1CCCC2 | 34.2 | > 100 | > 100 | 35.8 | 39.9 | 61.8 | > 100 | > 100 | 22.9 | > 100 | 86 |  |  |  |  |  | 
CC(OC(C)(C)C)C1NC(=O)C(CCCCNC(=O)OC(C)(C)C)NC(=O)C(Cc2c[nH]c3ccccc23)NC(=O)C(Cc2ccccc2)NC(=O)[C@H]2CCC[C@H]2NC(=O)C(Cc2ccccc2)NC1=O (some centres not stated) (cyclo([X27][ξF][ξW][ξK](Boc)[ξT](tBu)[ξF])) | > 100 |  | > 100 | > 100 | > 100 | > 100 | > 100 | > 100 | > 100 | > 100 | > 100 |  |  |  |  |  | 
COc1ccc(NC(=S)N/N=C\c2ccc(NC(C)=O)cc2)cc1 | > 100 | > 100 |  | > 100 |  | > 100 |  |  |  |  | > 100 |  |  |  |  |  | 
COc1cc(/C=C2/SC(c3ccccc3)N(Cc3ccccc3)C2=O)cc(OC)c1OC (configuration not stated) | > 100 | > 100 | > 100 | > 100 | > 100 | 63.2 | > 100 | > 100 | 72.3 |  | > 100 |  |  |  |  |  | 
CC(C)(C)c1cc(-c2cc(C(C)(C)C)[nH]n2)n[nH]1 | > 100 | > 100 | > 100 | > 100 | > 100 | > 100 |  |  | > 100 | > 100 | > 100 |  |  |  |  |  | 
CC(=O)N(C)c1ccc(N=CN(C)C)cc1 | > 100 | > 100 | > 100 | > 100 | > 100 | > 100 | > 100 | > 100 | > 100 | > 100 |  |  |  |  |  |  | 
COc1ccc(N=C2S/C(=N\C(=Nc3ccccc3)SCc3ccccc3)N(c3ccccc3)C2=Nc2ccc(OC)cc2)cc1 | > 100 | > 100 | > 100 | > 100 | > 100 | > 100 |  | > 100 | > 100 |  | > 100 |  |  |  |  |  | 
FC(F)(F)c1ccc(Cc2nc3cc4ccccc4cc3[nH]2)cc1 | > 100 | > 100 | > 100 | > 100 | > 100 |  | > 100 | > 100 | > 100 | > 100 | > 100 |  |  |  |  |  | 
CC1(C)CC(O)C2=C(O1)C(=O)c1ncccc1C2=O (configuration not stated) | 3.62 | 3.18 | 12 | 3.38 |  | 4.55 |  | 9.34 | 12.3 | 3.28 | 3.56 |  |  |  |  |  | 
CCOc1ccc(N/C(=C(/C(Cl)=C(/Cl)Nc2ccccc2)[N+](=O)[O-])n2nnc3ccccc32)cc1 | 62.3 | 28.7 | 28 | 70.3 | > 100 | > 100 | 53.7 |  |  |  |  |  |  |  |  |  | 
Cc1cc(O)c2c(c1O)C(=O)c1cccc(O)c1C2=O | > 100 | > 100 | > 100 | > 100 | > 100 |  | > 100 | > 100 | > 100 | > 100 | > 100 |  |  |  |  |  | 
O=C1C(C(O)(C(F)(F)Cl)C(F)(F)Cl)CCCC1C(O)(C(F)(F)Cl)C(F)(F)Cl (configuration not stated) | > 10 | > 10 | > 10 | > 10 |  |  | > 10 | > 10 | > 10 | > 10 | > 10 |  |  |  |  |  | 
O=C(NC(=S)Nc1ccc2c(c1)Sc1ccccc1O2)c1ccc([N+](=O)[O-])cc1 | > 100 | > 100 | > 100 | > 100 | > 100 |  | > 100 | > 100 | > 100 | > 100 | > 100 |  |  |  |  |  | 
O=P1(Oc2ccccc2)N=P(c2ccccc2)(c2ccccc2)C=C(c2ccc(Cl)cc2)N1 (configuration not stated) | 28 | 29.6 | 21.9 | 33.6 | 22.2 | 22.4 | 27.9 | 29.8 |  | 28.9 | 29.5 |  |  |  |  |  | 
CC(=O)C1C(=O)C(=O)N(c2ccccc2)C1=O (configuration not stated) | > 100 | > 100 | > 100 | > 100 |  | > 100 | > 100 | > 100 | > 100 | > 100 | > 100 |  |  |  |  |  | 
COc1ccc(CC2C3=C(CCN2C(=O)C2CCC2)CC2(CC3)OCCO2)cc1O (configuration not stated) | > 100 |  | 46.2 | > 100 | 84.4 | > 100 | 42.2 | > 100 | 37.5 | 75.9 | > 100 |  |  |  |  |  | 
c1ccc(N2N=C(c3cccc(Nc4ccncc4)c3)CC2c2ccc3c(c2)OCO3)cc1 (configuration not stated) |  | 4.06 | 3.38 |  |  |  | 3.6 |  | 3.06 | 3.18 | 2.54 | 1.83 | 1.49 | 1.66 | 1.61 | 1.7 | 1.18
CC(=O)N1N=C(c2ccc3ccccc3c2O)CC1c1cccs1 (configuration not stated) |  | 83.9 | > 100 | > 100 | 22.5 | 33.5 | 39.5 | > 100 | 99.3 | 89.2 | > 100 |  |  |  |  |  | 

From PubChem BioAssay (NCI)
